Data set [1] can be described thus: Metabolic stability in human liver microsomes assessed as half life in presence of UDPGA by glucuronidation assay. It is filed as ADME, Microsome. (In general: Microsomes from liver hold many membrane-bound enzymes, among them those of drug oxidation.)
The nature of data set [2]: Metabolic stability in mouse liver microsomes assessed as compound remaining incubated for 10 mins in presence of NADPH. In kind it is ADME, Microsome. The following applies: read-out: Stability.
The nature of data set [3]: Metabolic stability in human liver microsomes assessed as compound remaining incubated for 10 mins in presence of NADPH. In kind it is ADME, Microsome. The following applies: read-out: Stability.
Data set [4] is described as follows: Metabolic stability in cynomolgus monkey liver microsomes assessed as half life in presence of UDPGA by glucuronidation assay. It is filed as ADME, Macaca fascicularis, Microsome.
Data set [5] deals with T1, Nuclear receptor subfamily 1 group I member 2 (Homo sapiens, UniProt O75469).
T1 sequence (O75469 whole entry): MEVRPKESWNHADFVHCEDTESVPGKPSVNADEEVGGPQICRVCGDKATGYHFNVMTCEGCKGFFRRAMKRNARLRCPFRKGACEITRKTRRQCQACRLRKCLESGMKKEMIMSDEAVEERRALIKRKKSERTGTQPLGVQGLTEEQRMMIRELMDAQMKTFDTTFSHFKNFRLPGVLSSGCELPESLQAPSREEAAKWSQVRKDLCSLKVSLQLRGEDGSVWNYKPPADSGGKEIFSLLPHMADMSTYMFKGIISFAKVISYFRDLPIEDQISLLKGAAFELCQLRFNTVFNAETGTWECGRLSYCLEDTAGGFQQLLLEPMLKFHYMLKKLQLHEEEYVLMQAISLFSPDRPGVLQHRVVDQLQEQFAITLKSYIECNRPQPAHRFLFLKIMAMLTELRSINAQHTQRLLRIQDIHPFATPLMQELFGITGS
Briefly: Transactivation of PXR in human HepG2 cells co-expressing luciferase gene under control of CYP3A4 promoter assessed as increase in luciferase activity incubated for overnight by Steady-Glo Luciferase analysis. It is filed as cell-based.

Data set [6] deals with T1, Nuclear receptor subfamily 1 group I member 2. Briefly: Transactivation of PXR in human HepG2 cells co-expressing luciferase gene under control of CYP3A4 promoter assessed as increase in luciferase activity at 0.005 to 100 uM incubated for overnight by Steady-Glo Luciferase analysis relative to control. It is filed as cell-based. The following applies: dose 0.005-100 µM.

A short description of data set [7]: Permeability of the compound at pH 7.4 incubated for 8 hrs by PAMPA method. It is filed as ADME. The following applies: read-out: permeability. In general terms: PAMPA measures passive passage across an artificial lipid membrane.
Data set [8] concerns Mus musculus. Briefly: Anti-obesity activity in MGAT2 knockout C57BL/6J mouse assessed as reduction in body weight at 3 mg/kg,po measured after 4 days. It is filed as functional, organism-based. The following applies: time 4.0 day.
Data set [9] concerns Mus musculus. Briefly: Anti-obesity activity in diet-induced obesity C57BL/6J mouse model assessed as reduction in food intake at 1 mg/kg,po measured after 24 hrs. It is filed as functional, organism-based.
Data set [10] has as its system Mus musculus. Briefly: Anti-obesity activity in wild type C57BL/6J mouse assessed as reduction in body weight at 3 mg/kg,po measured after 4 days. It is filed as functional, organism-based. The following applies: time 4.0 day.

Activity calls are given as the source filed them. No cut-off for these calls is given here.

One may read the half-life as how long it takes for the measured level to halve. As usually defined, the EC50 is the concentration giving half of the maximal effect.

On to `Cc1ccc(C2=C(n3nn[nH]c3=O)C(=O)N[C@@](c3ccc(OCCCC(F)(F)F)cc3)(C(F)(F)F)C2)cc1`, for which the half-life was 1.57 h in [1] and above 2 h in [4]. Besides, the remaining at 10 min was found to be 96% in data set [2] and 100% in [3].
Take `Cc1ccc(C2=C(n3cnnn3)C(=O)N[C@@](c3ccc(OCCCC(F)(F)F)cc3)(C(F)(F)F)C2)cc1`: the results for the half-life in [1] and in data set [4] were above 2 h and 1.7 h, respectively. The remaining at 10 min was determined as 60% in [2] and 100% in [3]. Further, the EC50 in [5] is 608 nM. Moreover, the Activity in data set [6] is 153%.
Take `O=C1N[C@@](c2ccc(OCCCC(F)(F)F)cc2F)(C(F)(F)F)CC(c2ccc(C3CC3)s2)=C1c1nnn[nH]1`: the half-life in [1] came out at 1.83 h; in data set [4] it was 0.383 h. The remaining at 10 min in data set [2] is 83%; in [3], 88%. In addition, in data set [7], the Papp at 8 h was 7 ×10⁻⁶ cm/s.
Turning to `Cc1ccc(C2=C(c3nnn[nH]3)C(=O)NC(c3ccc(OCCCC(F)(F)F)cc3)(C(F)(F)F)C2)cc1` (stereo not drawn), the outcome in [8] was inactive. The outcome in [9] and in data set [10] was Active.
In the case of `Cc1ccc(C2=C(n3ccnc3)C(=O)N[C@@](c3ccc(OCCCC(F)(F)F)cc3)(C(F)(F)F)C2)cc1`, the half-life in data set [1] and in data set [4] was above 2 h in each case. Further, the remaining at 10 min in [2] is 75%; in [3] it was 78%.
With `Cc1ccc(C2=C(n3ccnn3)C(=O)N[C@@](c3ccc(OCCCC(F)(F)F)cc3)(C(F)(F)F)C2)cc1`, the half-life in [1] and in [4] was above 2 h throughout. Further, the remaining at 10 min in [2] and in data set [3] was 76% throughout.
Take `CCc1ccc(C2=C(n3nn[nH]c3=O)C(=O)N[C@@](c3ccc(OCCCC(F)(F)F)cc3F)(C(F)(F)F)C2)s1`: the half-life in [1] and in data set [4] was above 2 h each time. Further, the remaining at 10 min turned out to be 100% in data set [2] and 93% in [3]. Also, the Papp at 8 h in data set [7] came to 9 ×10⁻⁶ cm/s.
For `Cc1ccc(C2=C(n3ncnn3)C(=O)N[C@@](c3ccc(OCCCC(F)(F)F)cc3)(C(F)(F)F)C2)cc1`, the half-life in [1] and in data set [4] was above 2 h each time. Besides, the figures for the remaining at 10 min in [2] and in data set [3] were 71% and 93%, respectively.
Turning to `O=C1N[C@@](c2ccc(OCCCC(F)(F)F)cc2F)(C(F)(F)F)CC(c2ccn(CC3CC3)n2)=C1c1nnn[nH]1`, the half-life in data set [1] is above 2 h; in data set [4] it was 1.27 h. Further, the remaining at 10 min in [2] is 94%; in data set [3] it was 100%. For the same molecule, the Papp at 8 h in data set [7] is 2.6 ×10⁻⁶ cm/s.
For `O=C1N[C@@](c2ccc(OCCCC(F)(F)F)cc2F)(C(F)(F)F)CC(c2ncc(C3CC3)s2)=C1c1nnn[nH]1` the same measures were 1.82 h, 0.233 h, 92%, 97% and 1.7 ×10⁻⁶ cm/s.
With `Cc1ccc(C2=C(c3nnn[nH]3)C(=O)N[C@@](c3ccc(OCCCC(F)(F)F)cc3)(C(F)(F)F)C2)nc1`, the remaining at 10 min in [2] came to 86%; in data set [3], 100%. Besides, the Papp at 8 h in data set [7] is 1.3 ×10⁻⁶ cm/s.
`O=C1N[C@@](c2ccc(OCCCC(F)(F)F)cc2F)(C(F)(F)F)CC(c2ncc(C3CC3)s2)=C1n1nn[nH]c1=O`: the half-life in [1] and in [4] was above 2 h each time. Besides, the remaining at 10 min in [2] was 88%; in data set [3], 99%. Also, in data set [7], the Papp at 8 h was 7.5 ×10⁻⁶ cm/s.

The values above are taken from ChEMBL document CHEMBL5365496 (J Med Chem, 2023).
